The values below come from paper PMC12894115, “Discovery and Functional Characterization of SnFDHal, an Efficient Tryptophan 5-Halogenase from Streptomyces noursei” (Applied Biochemistry and Biotechnology, 2025).

Broadly, the Km is the concentration of substrate that gives half-maximal velocity.

In this test the test system is T1, SnFDHal.
T1 construct: full-length 1,551 bp gene (about 516 residues) cloned from genomic DNA, pET28a NdeI/XhoI, His6-tagged, E. coli BL21(DE3), Ni-NTA; residues F49, K75, I78, H92, F94, Q187, E359, S460
Nature of the test: HPLC chlorination assay, Michaelis-Menten fit. Format: biochemical, Streptomyces noursei. To be noted: NADH, FAD, E. coli Fre reductase (FADH2 regeneration), NaCl; 100 mM phosphate pH 6.0, 35 °C, 30 min. The source says: HPLC chlorination assay, Michaelis-Menten fit on SnFDHal
Consider `N[C@@H](Cc1c[nH]c2cc(Cl)ccc12)C(=O)O` [6-Cl-Trp, 6-chlorotryptophan], for which the Km was found to be 945 µM.
As for `N[C@@H](Cc1c[nH]c2c(Cl)cccc12)C(=O)O` [7-Cl-Trp, 7-chlorotryptophan], the Km was determined as 172 µM.
As to `N[C@@H](Cc1c[nH]c2ccccc12)C(=O)O` [L-Trp, L-tryptophan], the Michaelis constant (Km) was found to be 622 µM.
